In brackets after ≈: the same amount, converted by molar mass. Where two headings read alike, the source gives them in different places.
Columns and labels:
E. coli A15119 [1] = assay: in vitro MIC vs. E. coli A15119; format: cell-based; conditions: Escherichia coli
Excerpt: Also included in the table is the in vitro MIC's.
(§1) MIC (mcg/ml) i.m. vs E. coli A15119

E. coli A15119 [2] = assay: in vivo therapeutic efficacy after intramuscular administration to mice infected intraperitoneally (PD50); conditions: Escherichia coli, A15119, im
Experimental: The in vivo therapeutic efficacy of two representative compounds after intramuscular administration to mice infected intraperitoneally with 0.5 ml of various bacterial suspension is shown in Table I. The values are given in PD50 (dose in mg/kg) to give protection to 50% of the infected mice.
as §1

[3] = read-out: PD50 i.m. vs E. coli A15119, 41 LD50

SMILES | MIC (E. coli A15119 [1]) [mg/L] | ED50 (E. coli A15119 [2]; [3]) [mg/kg] | ED50 (E. coli A15119 [2]; mice, i.m. dosing, infected i.p. with 0.5 ml bacterial suspension, challenge 143 LD50, dose protecting 50% of infected mice, read-out: PD50 i.m. vs E. coli A15119, 143 LD50) [mg/kg] | ED50 (E. coli A15119 [2]; read-out: PD50 i.m. vs E. coli A15119, 143 LD50) [mg/kg]
CO/N=C(\C(=O)N[C@@H]1C(=O)N2C(C(=O)O)=C(c3c(OC(C)C)c(=O)c3=O)CS[C@H]12)c1csc(N)n1 [Id3] | 1 (≈ 1.92 µM) | 1.4 | > 25 | 
CO/N=C(\C(=O)N[C@@H]1C(=O)N2C(C(=O)O)=C(c3c(N)c(=O)c3=O)CC[C@H]12)c1csc(N)n1 (relative stereo) [Id6] | 0.06 (≈ 0.13 µM) | < 0.098 |  | 1.7
